Data reported in patent US20130224219A1, “DRUG AND METHOD FOR THE PROPHYLAXIS OF HIV INFECTION AND FOR THE PROPHYLAXIS AND TREATMENT OF DISEASES CAUSED BY OR ASSOCIATED WITH HIV, INCLUDING AIDS” (priority 2010, published 2013).

System: HIV-1-LAI
Assay: Inhibition of HIV replication in human peripheral blood mononuclear cells infected in vitro, p24 ELISA
Type: cell-based
Details: Human immunodeficiency virus 1, PBMC, read-out: inhibition of HIV replication (nucleocapsid core protein p24 in cell supernatants)
Description: Antiretroviral action of the claimed medicinal agent was studied by inhibiting the replication of HIV in the culture of mononuclear cells of the peripheral human blood which were infected in vitro by the strain of HIV-1-LAI. Effective inhibition of HIV replication was evaluated by the content of basic nuclecapsid protein r24 in the supernatant of HIV.
Human peripheral blood mononuclear cells were isolated from the blood of healthy seronegative donors by density gradient centrifugation of Ficoll-Hypaque. Cells were activated for 3 days with […] phytogemmaglyutin P and 5 ME/ml of recombinant human interleukin-2 […]
Cell culture supernatants were collected at day 7 after infection. Efficacy of the drugs was determined by the inhibition of HIV replication, which was evaluated by content nucleocapsid core protein p24 of HIV in cell supernatants by ELISA (Retrotek Elisa kit).
Antiretroviral effect of the claimed medicinal agent studied by inhibiting HIV replication in cultured peripheral blood mononuclear cells of human infected in vitro HIV-1-LAI. Effective inhibition of HIV replication was evaluated by the content of basic nucleocapsid protein p24 in the supernatants of HIV. […]

SMILES: Cc1cn([C@H]2C[C@H](N=[N+]=[N-])[C@@H](CO)O2)c(=O)[nH]c1=O [AZT, zidovudine]
- inhibition at 1 µM: 99%
